Results: ChEMBL document CHEMBL2384972, “Tricyclic Pyrimidines As Inhibitors of DYRK1A/DYRK1B As Potential Treatment for Down's Syndrome or Alzheimer's Disease” (ACS Med Chem Lett, 2013)

Tests used:
[1] = target: Dual specificity tyrosine-phosphorylation-regulated kinase 1A (Homo sapiens, UniProt Q13627); assay: Inhibition of recombinant DYRK1A (unknown origin) after 120 mins in presence of [33P]-ATP
[2] = target: Dual specificity tyrosine-phosphorylation-regulated kinase 1B (Homo sapiens, UniProt Q9Y463); assay: Inhibition of recombinant DYRK1B (unknown origin) after 120 mins in presence of [33P]-ATP
Chain of Dual specificity tyrosine-phosphorylation-regulated kinase 1B (Q9Y463 whole entry): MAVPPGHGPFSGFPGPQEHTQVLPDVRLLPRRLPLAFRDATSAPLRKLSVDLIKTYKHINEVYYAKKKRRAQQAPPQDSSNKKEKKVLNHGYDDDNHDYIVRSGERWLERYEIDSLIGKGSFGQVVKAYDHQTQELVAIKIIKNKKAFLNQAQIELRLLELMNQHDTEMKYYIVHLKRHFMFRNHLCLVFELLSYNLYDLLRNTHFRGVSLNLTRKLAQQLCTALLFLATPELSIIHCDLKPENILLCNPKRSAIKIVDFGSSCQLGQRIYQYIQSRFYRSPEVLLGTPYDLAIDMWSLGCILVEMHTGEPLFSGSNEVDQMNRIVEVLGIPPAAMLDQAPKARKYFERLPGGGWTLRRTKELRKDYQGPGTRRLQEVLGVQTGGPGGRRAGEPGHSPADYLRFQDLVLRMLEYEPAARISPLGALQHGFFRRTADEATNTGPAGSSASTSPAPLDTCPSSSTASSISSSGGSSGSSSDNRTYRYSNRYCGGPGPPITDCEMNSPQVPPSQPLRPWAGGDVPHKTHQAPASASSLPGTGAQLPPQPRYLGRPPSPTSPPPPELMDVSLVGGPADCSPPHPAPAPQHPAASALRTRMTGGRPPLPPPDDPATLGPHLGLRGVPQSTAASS

IC50 [1] [nM]	IC50 [2] [nM]	Compound
0.16	0.24	COC(=N)c1nc2ccc3ncnc(Nc4ccc(Br)cc4F)c3c2s1
3.6	6.55	COC(=N)c1nc2ccc3ncnc(Nc4ccc(F)cc4Br)c3c2s1
